The values that follow come from patent publication US20260216326A1, “METHODS OF TREATING INFLAMMATORY DISEASES WITH COMBINATION OF TL1A INHIBITORS AND S1PR INHIBITORS” (Prometheus Biosciences, Inc., priority 2022, published 2026).

Series [1] concerns Rag2−/− mice receiving CD4+CD45RB+ T cells. Put plainly: T cell transfer model of murine colitis. In kind it is in vivo, mouse. An excerpt:
The murine T cell transfer model of colitis is used to test the synergistic effect of blocking TL1A and S1P on the development of colitis using a mouse-specific TL1A antibody (anti-TL1A) and S1PR functional antagonist (FTY720). To initiate colitis, CD4+CD45RB+ T cells from the spleens of C57BL/6 mice are sorted to >95% purity and transferred by I.V. injection to Rag2−/− mice lacking mature B and T cells (0.5e6 cells/mouse), which are then randomized by weight on day 0. Mice are weighed and monitored for signs of disease every other day for 7 weeks.
One day prior to the initiation of disease (day-1) and weekly throughout the course of the experiment, mice are treated with a single I.P. injection of anti-TL1A in 0.2 ml total volume according to Table 64. In addition, FTY720 or the appropriate vehicle control is orally dosed daily according to Table 64. Group 1 serve as the naïve control and Group 2 is treated with isotype control antibodies. Groups 3 and 4 test the high dose of either anti-TL1A or FTY720, respectively. Groups 5 and 6 test the low dose of either anti-TL1A or FTY720. Groups 7 and 8 test the high and low dose combination therapies, respectively.
At day 49 after disease induction with CD4+CD45RB+ T cell transfer, mice are anaesthetized and bled by cardiac puncture. Blood is kept on ice for 30 minutes and then spun down to separate the serum, which is stored at −80 C for cytokine measurement by MSD. After the terminal bleed, mice are euthanized by CO2 overdose per IACUC guidelines. Colons are harvested for each mouse and measured for length and weight. 1 cm of the middle colon is collected into RNAlater, and kept at room temperature for 2 hours prior to freezing at −80 C. The colonic tissue preserved in RNAlater is processed for mRNA and subjected to bulk RNA sequencing and differential gene expression analysis. The remainder of the proximal and distal colon is preserved in 10% NBF at room temperature for 48 hours prior to moving to 70% ethanol. […]

In the next series the test system is IL10−/− mice. Put plainly: IL10−/− model of murine colitis. In kind it is in vivo, mouse. The protocol: IL10−/− and WT mice on the C57BL/6 background are monitored for body weight every other day. IL10−/− mice begins to manifest symptoms of colitis by 4 weeks of age compared with WT mice, including diarrhea and weight loss greater than 5%. Treatment protocols are initiated when the mice are between 14-18 weeks of age.
By 14−18 weeks of age, IL10−/− mice develop sufficiently severe symptoms of disease to being testing therapeutic treatments. For four weeks, mice are treated weekly with Intraperitoneal (I.P.) anti-TL1a injection and daily with oral FTY720 (S1PR inhibitor, anti-S1PR) according to Table 61. Group 1 serves as the naïve control and Group 2 is treated with isotype and vehicle controls. Groups 3 and 4 test the high dose of either TL1a or S1PR blockade, respectively. Groups 5 and 6 test the low dose of either TL1a or S1PR blockade. Groups 7 and 8 test the high and low dose combination therapies, respectively.
At day 28 after initiation of treatment, mice are anaesthetized and bled by cardiac puncture. Blood is kept on ice for 30 minutes and then spun down to separate the serum, which is stored at −80 C for cytokine measurement by MSD. After the terminal bleed, mice are euthanized by CO2 overdose per IACUC guidelines. Colons are harvested for each mouse and measured for length and weight. 1 cm of the middle colon is collected into RNAlater, and kept at room temperature for 2 hours prior to freezing at −80 C. The colonic tissue preserved in RNAlater is processed for mRNA and subjected to bulk RNA sequencing and standard differential gene expression analysis. The remainder of the proximal and distal colon is preserved in 10% NBF at room temperature for 48 hours prior to moving to 70% ethanol. These preserved colonic tissues are sectioned and stained by H&E prior to analysis by a veterinary pathologist for clinical signs of colitis.

Series [2] concerns the target T1, S1P4 (Homo sapiens, UniProt O95977).
T1 sequence (O95977 1-384): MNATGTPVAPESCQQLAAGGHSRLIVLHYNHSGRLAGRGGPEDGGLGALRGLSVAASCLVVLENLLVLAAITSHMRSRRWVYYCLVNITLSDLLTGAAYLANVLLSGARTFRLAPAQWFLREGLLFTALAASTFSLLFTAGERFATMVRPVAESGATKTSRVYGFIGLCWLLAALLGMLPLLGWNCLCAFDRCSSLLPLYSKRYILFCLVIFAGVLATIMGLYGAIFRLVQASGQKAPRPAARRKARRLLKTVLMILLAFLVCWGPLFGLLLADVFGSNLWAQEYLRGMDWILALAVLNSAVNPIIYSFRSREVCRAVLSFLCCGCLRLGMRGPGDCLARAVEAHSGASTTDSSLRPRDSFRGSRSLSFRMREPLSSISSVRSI
The settings on record: cited from earlier work.

The target of another series is S1P2 (Homo sapiens, UniProt O95136). The settings on record: cited from earlier work.
Sequence of S1P2 (O95136 whole entry, species assumed): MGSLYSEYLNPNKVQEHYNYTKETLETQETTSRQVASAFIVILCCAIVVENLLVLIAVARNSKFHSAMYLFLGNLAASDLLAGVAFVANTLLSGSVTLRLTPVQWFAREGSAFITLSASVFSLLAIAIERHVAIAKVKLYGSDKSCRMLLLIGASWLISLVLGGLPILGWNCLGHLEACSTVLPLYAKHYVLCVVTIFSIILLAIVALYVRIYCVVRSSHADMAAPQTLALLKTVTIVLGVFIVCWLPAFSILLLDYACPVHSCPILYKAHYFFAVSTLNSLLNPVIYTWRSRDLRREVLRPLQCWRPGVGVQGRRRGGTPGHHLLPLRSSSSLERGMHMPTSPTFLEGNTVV
For series [3], the target named is T2, S1P3 (Homo sapiens, UniProt Q99500). To be noted: cited from earlier work.
Target sequence in this assay (Q99500 whole entry, species assumed): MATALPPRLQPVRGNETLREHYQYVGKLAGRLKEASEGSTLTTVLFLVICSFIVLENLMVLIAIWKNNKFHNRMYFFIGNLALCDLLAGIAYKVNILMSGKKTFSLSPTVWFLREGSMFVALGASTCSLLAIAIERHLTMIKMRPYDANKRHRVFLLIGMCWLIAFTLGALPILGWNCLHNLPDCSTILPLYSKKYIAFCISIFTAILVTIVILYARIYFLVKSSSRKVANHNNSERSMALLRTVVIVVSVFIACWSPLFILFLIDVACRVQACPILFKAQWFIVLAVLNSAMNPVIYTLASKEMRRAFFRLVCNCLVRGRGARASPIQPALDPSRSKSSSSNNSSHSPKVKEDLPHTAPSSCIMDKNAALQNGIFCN
The test system of a further series is peripheral lymphocytes. The settings on record: mice, 24 h after oral dosing; cited from earlier work.
The target of series [4] is T3, S1P1 (Homo sapiens, UniProt P21453). The settings on record: cited from earlier work.
T3 sequence (P21453 whole entry, species assumed): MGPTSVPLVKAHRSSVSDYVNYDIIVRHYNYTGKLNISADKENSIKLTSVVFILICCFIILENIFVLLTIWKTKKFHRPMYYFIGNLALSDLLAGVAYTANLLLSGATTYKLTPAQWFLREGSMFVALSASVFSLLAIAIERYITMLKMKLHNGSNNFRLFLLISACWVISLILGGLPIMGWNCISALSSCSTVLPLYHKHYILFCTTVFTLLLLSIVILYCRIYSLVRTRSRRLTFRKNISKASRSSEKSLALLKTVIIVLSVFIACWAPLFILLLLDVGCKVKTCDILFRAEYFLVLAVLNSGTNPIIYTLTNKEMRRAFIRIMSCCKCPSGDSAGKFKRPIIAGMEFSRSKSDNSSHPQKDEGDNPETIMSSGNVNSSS
In series [5] the target is T1, S1P4. To be noted: cited from earlier work. This is another data set of the same source.
For series [6], the target named is recombinant mouse S1P1 receptors (Mus musculus, UniProt O08530). To be noted: read-out: EC50, agonist of S1P1 receptors; cited from earlier work.
Sequence of recombinant mouse S1P1 receptors (O08530 whole entry): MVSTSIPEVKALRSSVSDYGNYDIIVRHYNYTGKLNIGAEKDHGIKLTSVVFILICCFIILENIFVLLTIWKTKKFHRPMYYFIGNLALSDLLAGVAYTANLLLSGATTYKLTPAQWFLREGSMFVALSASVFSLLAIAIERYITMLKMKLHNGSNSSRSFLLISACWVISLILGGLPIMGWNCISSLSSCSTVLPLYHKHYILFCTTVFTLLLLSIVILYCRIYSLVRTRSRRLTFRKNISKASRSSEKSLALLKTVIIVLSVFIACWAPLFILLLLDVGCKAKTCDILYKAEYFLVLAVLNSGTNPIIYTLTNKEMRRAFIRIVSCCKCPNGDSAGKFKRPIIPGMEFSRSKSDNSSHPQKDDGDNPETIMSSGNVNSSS
Series [7] concerns the target T2, S1P3. To be noted: cited from earlier work. The source holds these as a separate data set.
Target sequence in this assay (Q99500 whole entry): as the sequence (Q99500 whole entry, species assumed) above
Series [8] has as its target human Sphingosine-1-phosphate receptor 2 (S1P2 or S1PR2) (Homo sapiens, UniProt O95136). To be noted: cited from earlier work.
Series [9] addresses recombinant dog S1P1 receptors. The settings on record: read-out: EC50, agonist of S1P1 receptors; cited from earlier work.
The next series concerns the target human S1P5 (Homo sapiens, UniProt Q9H228). To be noted: cited from earlier work.
The target of series [10] is recombinant monkey S1P1 receptors. The settings on record: read-out: EC50, agonist of S1P1 receptors; cited from earlier work.
Series [11] addresses T2, S1P3. To be noted: read-out: ED50 value on S1P3; cited from earlier work.
Target sequence in this assay (Q99500 whole entry, species assumed): as above
The target of series [12] is T3, S1P1. To be noted: read-out: ED50 value, agonistic activity on S1P1; cited from earlier work.
Series [13] addresses sphingosine-1-phosphate receptor 1 (S1P1) (Homo sapiens, UniProt P21453). The settings on record: binding; cited from earlier work.
Series [14] addresses T2, S1P3. The settings on record: cited from earlier work. This is another data set of the same source.
Target sequence in this assay (Q99500 whole entry, species assumed): as above
Series [15] deals with T3, S1P1. To be noted: cited from earlier work. This is another data set of the same source.
The subject of series [16] is CD20-expressing Raji cell. The series is described as follows: CDC positive control with Rituxan. In kind it is cell-based, human. The protocol: Test articles were evaluated for CDC activity, compared to negative control Human IgG4 isotype control, on TL1A-expressing HEK293 target cells. Rituxan (anti-CD20) was used as a positive technical control on CD20-expressing Raji cell. All test articles were used at a final top concentration of 10 μg/mL followed by a five-fold dilution series (7 points total), in addition to a no treatment control, in triplicate. Cells were incubated with test articles for 15 minutes at 37 C, then treated with human complement, at a final concentration of 25%, for 3 hours at 37 C, 5% CO2. Following incubation, cells were washed and resuspended in Propidium Iodide (P.I.) at a final concentration of 5 μg/mL prior to flow cytometry analysis. Total cells were examined by flow cytometry during sample acquisition. Data were plotted on an XY chart, graphing percentage P.I. positive cells against the log of the concentration and fit to a non-linear regression curve. Cell cytotoxicity in the presence of all test articles was not distinguishable from cell cytotoxicity in the presence of isotype control (Table 12).

The next series has as its system human whole blood. The series is described as follows: Human cytokine release assay, whole blood. In kind it is cell-based.

“Also recorded” adds a separate entry of the source. Read-outs that look alike come from different tables or passages of the source.

Sequence of human Sphingosine-1-phosphate receptor 2 (S1P2 or S1PR2) (O95136 whole entry): as the sequence (O95136 whole entry, species assumed) above
Sequence of human S1P5 (Q9H228 whole entry): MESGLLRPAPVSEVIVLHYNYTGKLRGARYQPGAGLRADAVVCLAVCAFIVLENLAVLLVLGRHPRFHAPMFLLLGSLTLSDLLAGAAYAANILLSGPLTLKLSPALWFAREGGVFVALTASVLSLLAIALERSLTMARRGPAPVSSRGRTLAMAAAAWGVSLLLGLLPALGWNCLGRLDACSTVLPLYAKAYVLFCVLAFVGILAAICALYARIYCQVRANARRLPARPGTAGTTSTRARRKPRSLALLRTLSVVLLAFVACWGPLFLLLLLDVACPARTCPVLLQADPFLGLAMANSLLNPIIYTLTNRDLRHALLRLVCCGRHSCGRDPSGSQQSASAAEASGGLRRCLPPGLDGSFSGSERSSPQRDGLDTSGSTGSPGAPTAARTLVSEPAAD
Sequence of sphingosine-1-phosphate receptor 1 (S1P1) (P21453 whole entry, species assumed): as the sequence (P21453 whole entry, species assumed) above

Regarding `CCCCCCCCc1ccc(CCC(N)(CO)CO)cc1` [FTY720], the disease per histopathology result (in [1] (colonic tissue); with IL10−/− mice (colonic tissue)) was “reduces disease per histopathology in a dose dependent manner” throughout. In addition, the “serum inflammatory cytokines (MSD)” value is on record as “Reduced levels of inflammatory cytokines” in series [1] (mouse, in vivo) and “Reduced levels of inflammatory cytokines” in the series with IL10−/− mice (mouse, in vivo). For the same molecule, the body weight loss result in [1] (single agents, Groups 3-6) is on record as “alleviates body weight loss in a dose-dependent manner”; in the series with IL10−/− mice (single agents, Groups 3-6) it was “alleviates body weight loss in a dose-dependent manner”.
In the case of `CCCCCCCOc1ccc(CCC(N)(CO)CO)cc1C(F)(F)F` [amiselimod, 2-amino-2-{2-[4-(heptyloxy)-3-(trifluoromethyl)phenyl]ethyl}propan-1,3-diol], the “agonist activity for S1P4” value at S1P4 [2] is on record as “minimal agonist activity”. In addition, the “agonist activity for S1P2” value at S1P2 is recorded as “no distinct agonist activity”. The “agonist activity for S1P3” value at S1P3 [3] was “no distinct agonist activity”.
Turning to `CCCc1ccc(COc2ccc3c(c2)CCC(CN2CC(C(=O)O)C2)=C3C)c(OC)c1` [ceralifimod, 1-({6-[(2-methoxy-4-propylbenzyl)oxy]-1-methyl-3,4-dihydronaphthalen-2-yl}methyl) azetidine-3-carboxylic acid], the “ED50, peripheral lymphocyte lowering (PLL) test” value in the series with peripheral lymphocytes is on record as 0.029 mg/kg. The “selectivity for S1P1 over S1P3” value on S1P1 [4] is > 30 000 fold.
`O=C(O)C[C@H]1CCc2c1[nH]c1ccc(OCc3ccc(C4CCCC4)c(C(F)(F)F)c3)cc21` [etrasimod, (R)-2-(7-(4-cyclopentyl-3-(trifluoromethyl)benzyloxy)-1,2,3,4-tetrahydrocyclopenta[b]indol-3-yl) acetic acid]: the “relative efficacy, % of S1P response” value on S1P4 [5] is 63%; on human S1P5, 73%. The EC50 in [6] was 3.65 nM; in series [9], 4.19 nM; in series [10], 8.7 nM. Besides, the “agonist or antagonist activity” value (at S1P3 [7]; in series [8]) was “neither agonist nor antagonist activity was observed” each time.
As to `NC(CO)(CO)CCc1ccc(Sc2cccc(OCc3ccccc3)c2)cc1Cl` [mocravimod, 2-amino-2-{2-[4-(3-benzyloxyphenylthio)-2-chlorophenyl]ethyl}-1,3-propanediol], the EC50 is > 1000 nM on S1P3 [11] and 0.84 nM on S1P1 [12]. Moreover, the “selectivity for S1P1 over S1P2 and S1P5” value in series [13] is reported as 100 fold.
With `CCC/N=C1\S/C(=C\c2ccc(OC[C@H](O)CO)c(Cl)c2)C(=O)N1c1ccccc1C` [ponesimod, (2Z,5Z)-5-[3-chloro-4-[(2R)-2,3-dihydroxypropoxy]benzylidene]-3-(2-methylphenyl)-2-(propylimino)-1,3-thiazolidin-4-one], at S1P3 [14], the “potency for S1P3, lower compared with the natural ligand” value was 150 fold. The “S1P1 selectivity, higher compared with the natural ligand” value at S1P1 [15] (S1P1 versus S1P3) is reported as “approximately 650 fold”. In addition, the “potency for S1P1, higher compared with the natural ligand” value at S1P1 [15] (compared with the natural ligand) was 4.4. Moreover, the EC50 at S1P1 [15] (read-out: half maximal effective concentration (EC50), S1P1 activation) was 5.7 nM.
Regarding “Rituxan: anti-CD20 antibody, positive control in the CDC assay”, the “CDC bioactivity / complement-mediated lysis” value in [16] is on record as “CDC bioactivity was observed; also recorded: expected increase in complement-mediated lysis”.
As to Staphylococcal enterotoxin B [SEB], the “cytokine release (IL-2, IL-6, IL-10, TNF, IFN-γ) in whole blood” value with human whole blood is “induced IL-2, IL-6, IL-10, TNF, and IFN-γ release”.
